Experimental data taken from paper PMC3532212 (PLoS ONE, 2012).

Key:
[1] = system: conscious, telemetry-instrumented rats; experiment: Telemetry-instrumented conscious rats, single oral dose hemodynamics; type: in vivo; settings: conscious rat; for mean arterial pressure above baseline, 24-hr mean: vehicle 3.6±1.5
Experimental: (§1) Mean arterial pressure was assessed in conscious, freely moving male Sprague Dawley rats (n = 6–8/group; Charles River) instrumented with telemetry transmitters (DSI-Ponemah) and housed in metabolism cages as previously described, [26]. Tested compounds were solubilized in a 0.5% Methylcellulose/0.015% Tween 80 vehicle that was also dosed alone (p.o./QD, 5 mL/kg) as a control in the study. FTY720 was administered p.o. at 0.3, 1.0, 3.0, 10.0 mg/kg p.o. as a single dose or p.o./QD at 0.5, 1.5, and 5.0 mg/kg in a chronic study. BAF312 was administered p.o/QD at 0.3, 3.0, and 30 mg/kg as a single dose and in a chronic study. Mean arterial pressure and heart rate are shown as 1-hr and/or 24-hr mean values±SEM as described in the results. Blood samples in satellite rats were withdrawn at various timepoints as described in the results for analysis of plasma concentrations of the parent compound and, in the case of FTY720, also the phosphorylated metabolite, (S)-FTY720-P. Statistical analysis for the single-dose acute studies was based on one-way ANOVA to compare the treatment groups vs. vehicle for each time period after dosing (0–24 hrs, 24–48 hrs, and 48–72 hrs); statistical significance (p<0.05) was detected by Dunnett’s post-hoc test to compare treatment with vehicle controls. The statistical analysis in the chronic studies were based on one-way ANOVA with repeated measures to compare the treatment arms; statistical significance (p<0.05) was detected by Dunnett’s post-hoc test to compare treatment with vehicle controls.

human S1P4 = target: T1, human S1P4 (Homo sapiens, UniProt O95977); experiment: B arrestin recruitment assay, Tango EDG6-bla U2OS cells; type: cell-based; settings: for EC50: B arrestin, 18 hours agonist incubation
T1 construct: host or cells: U2OS (Tango EDG6-bla)
T1 sequence (O95977 1-384): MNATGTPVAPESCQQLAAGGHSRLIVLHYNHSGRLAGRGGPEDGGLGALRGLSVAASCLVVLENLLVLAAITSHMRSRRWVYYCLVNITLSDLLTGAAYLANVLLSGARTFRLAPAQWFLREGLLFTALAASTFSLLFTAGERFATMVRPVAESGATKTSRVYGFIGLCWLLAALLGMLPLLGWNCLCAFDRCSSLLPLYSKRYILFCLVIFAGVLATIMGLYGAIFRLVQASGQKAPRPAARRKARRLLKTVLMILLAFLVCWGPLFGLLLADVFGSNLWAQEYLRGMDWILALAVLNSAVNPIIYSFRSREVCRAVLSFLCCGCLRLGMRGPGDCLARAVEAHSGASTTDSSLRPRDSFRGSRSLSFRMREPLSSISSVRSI
Experimental: Tango™ EDG1-bla U2OS cells (Human S1P1), Tango™ EDG3-bla U2OS cells (human S1P3), Tango™ EDG6-bla U2OS cells (human S1P4) and Tango™ EDG8-bla U2OS cells (human S1P5) cell lines were cultured and assayed according to manufacturers instructions with one modification; agonists incubated on the cells for 18 hours prior to addition of the GenBlazer substrate. Final DMSO concentration in the assay is 1%.

[2] = Plasma concentrations after a single oral dose in rats; type: in vivo; settings: rat; for Plasma concentration / concentration at 4 hr / concentration at 8 h / concentration at 24 h / concentration at 48 h / concentration at 72 h: mean±SEM; for time post-dose through which plasma values were detectable: FTY720 single oral dose; for concentration at 4 hr / concentration at 8 h / concentration at 24 h / concentration at 48 h / concentration at 72 h: male, Sprague Dawley, plasma
Experimental: as §1

[3] = CSF concentrations after a single oral dose of FTY720, satellite rats; type: in vivo, rat; settings: FTY720 3.0 or 10 mg/kg single oral dose, 4, 8, 24, 72-hrs post-dose
Experimental: Prior to longer-term hypertension studies with FTY720 an acute, single oral-dose study was performed to define the lower and upper limits of a pharmacologically-active dose with respect to acute hemodynamic effects. […] Values of both the parent and metabolite were detectable through at least 72-hrs post-dose. Tissue concentrations in the brain, skeletal muscle, and CSF were also determined in a separate group of satellite rats (please see Supplementary Figure, S2 ). Relative to the vehicle control group, FTY720 elicited dose-dependent and sustained increases in mean arterial pressure after a single oral dose, an effect that reached statistical significance in the 3 and 10 mg/kg dose groups (to 13.5±1.8 and 19.9±2.8 mmHg above baseline, respectively, based on a 24-hr mean values on day 1 vs. 3.6±1.5 mmHg in vehicle controls, Figure 4 , A). […] The acute hemodynamic effects of a single oral dose of BAF312 (0.3, 3.0, and 30 mg/kg) were also quantified.
A blood sample or tissues were harvested from satellite rats at 4, 8, 24, and 72-hrs post-dose. […] (TIF) Click here for additional data file.

[4] = BAF312 0.3, 3.0, 30 mg/kg single oral dose
[5] = FTY720 0.3 mg/kg single oral dose
[6] = FTY720 0.3 mg/kg single oral dose, 4 hr post-dose
[7] = FTY720 0.3 mg/kg single oral dose, 8 hr post-dose
[8] = FTY720 0.3 mg/kg single oral dose, 24 hr post-dose
[9] = FTY720 0.3 mg/kg single oral dose, 48 hr post-dose
[10] = FTY720 0.3 mg/kg single oral dose, 72 hr post-dose
[11] = FTY720 1.0 mg/kg single oral dose
[12] = FTY720 1.0 mg/kg single oral dose, 4 hr post-dose
[13] = FTY720 1.0 mg/kg single oral dose, 8 hr post-dose
[14] = FTY720 1.0 mg/kg single oral dose, 24 hr post-dose
[15] = FTY720 1.0 mg/kg single oral dose, 48 hr post-dose
[16] = FTY720 1.0 mg/kg single oral dose, 72 hr post-dose
[17] = FTY720 3.0 mg/kg single oral dose
[18] = FTY720 3.0 mg/kg single oral dose, 4 hr post-dose
[19] = FTY720 3.0 mg/kg single oral dose, 8 hr post-dose
[20] = FTY720 3.0 mg/kg single oral dose, 24 hr post-dose
[21] = FTY720 3.0 mg/kg single oral dose, 48 hr post-dose
[22] = FTY720 3.0 mg/kg single oral dose, 72 hr post-dose
[23] = FTY720 10 mg/kg single oral dose
[24] = FTY720 10.0 mg/kg single oral dose, 4 hr post-dose
[25] = FTY720 10.0 mg/kg single oral dose, 8 hr post-dose
[26] = FTY720 10.0 mg/kg single oral dose, 24 hr post-dose
[27] = FTY720 10.0 mg/kg single oral dose, 48 hr post-dose
[28] = FTY720 10.0 mg/kg single oral dose, 72 hr post-dose

## CCc1cc(/C(C)=N/OCc2ccc(C3CCCCC3)c(C(F)(F)F)c2)ccc1CN1CC(C(=O)O)C1 [BAF312]
[1]; [4]
  effect on heart rate: no statistically significant effect
  effect on mean arterial pressure: no statistically significant effect
Human S1P4; B arrestin EC50s
  selectivity over S1P4: 100 fold
Human S1P4
  EC50: 245 nM

## CCCCCCCCc1ccc(CC[C@](N)(CO)COP(=O)(O)O)cc1 [FTY720-P]
[2]; [5]
  Plasma concentration at Tmax: 83 ± 3 nM
[2]; [6]
  Plasma concentration: 66 ± 3 nM
[2]; [7]
  Plasma concentration: 83 ± 3 nM
[2]; [8]
  Plasma concentration: 43 ± 7 nM
[2]; [9]
  Plasma concentration: 29 ± 3 nM
[2]; [10]
  Plasma concentration: 4 ± 4 nM
[2]; [11]
  Plasma concentration at Tmax: 263 ± 13 nM
[2]; [12]
  Plasma concentration: 172 ± 16 nM
[2]; [13]
  Plasma concentration: 263 ± 13 nM
[2]; [14]
  Plasma concentration: 113 ± 2 nM
[2]; [15]
  Plasma concentration: 81 ± 11 nM
[2]; [16]
  Plasma concentration: 26 ± 4 nM
[2]; [17]
  Plasma concentration at Tmax: 360 ± 55 nM
[2]; [18]
  Plasma concentration: 285 ± 29 nM
[2]; [19]
  Plasma concentration: 339 ± 36 nM
[2]; [20]
  Plasma concentration: 360 ± 55 nM
[2]; [21]
  Plasma concentration: 152 ± 14 nM
[2]; [22]
  Plasma concentration: 165 ± 2 nM
[2]; [23]
  Plasma concentration at Tmax: 1090 ± 124 nM
[2]; [24]
  Plasma concentration: 559 ± 159 nM
[2]; [25]
  Plasma concentration: 1145 ± 505 nM
[2]; [26]
  Plasma concentration: 1090 ± 124 nM
[2]; [27]
  Plasma concentration: 455 ± 57 nM
[2]; [28]
  Plasma concentration: 629 ± 157 nM
[2]
  time post-dose through which plasma values were detectable: at least 72 hrs
[3]
  concentration in the CSF: No compound was detectable
Human S1P4
  EC50: 26 nM

## CCCCCCCCc1ccc(CCC(N)(CO)CO)cc1 [FTY720]
[2]; [6]
  concentration at 4 hr: 10 ± 5 nM
[2]; [7]
  concentration at 8 h: 14 ± 5 nM
[2]; [8]
  concentration at 24 h: 15 ± 3 nM
[2]; [9]
  concentration at 48 h: 13 ± 1 nM
[2]; [10]
  concentration at 72 h: 7 ± 2 nM
[2]; [12]
  concentration at 4 hr: 25 ± 3 nM
[2]; [13]
  concentration at 8 h: 36 ± 5 nM
[2]; [14]
  concentration at 24 h: 22 ± 2 nM
[2]; [15]
  concentration at 48 h: 12 ± 1 nM
[2]; [16]
  concentration at 72 h: 10 ± 1 nM
[2]; [18]
  concentration at 4 hr: 62 ± 4 nM
[2]; [19]
  concentration at 8 h: 79 ± 17 nM
[2]; [20]
  concentration at 24 h: 91 ± 19 nM
[2]; [21]
  concentration at 48 h: 53 ± 15 nM
[2]; [22]
  concentration at 72 h: 34 ± 4 nM
[2]; [24]
  concentration at 4 hr: 146 ± 18 nM
[2]; [25]
  concentration at 8 h: 274 ± 46 nM
[2]; [26]
  concentration at 24 h: 301 ± 31 nM
[2]; [27]
  concentration at 48 h: 143 ± 16 nM
[2]; [28]
  concentration at 72 h: 101 ± 21 nM
[2]; [5]
  Plasma concentration at Tmax: 15 ± 3 nM
[2]; [11]
  Plasma concentration at Tmax: 36 ± 5 nM
[2]; [17]
  Plasma concentration at Tmax: 91 ± 19 nM
[2]; [23]
  Plasma concentration at Tmax: 301 ± 31 nM
[2]
  time post-dose through which plasma values were detectable: at least 72 hrs
[1]; FTY720 3 mg/kg single oral dose, day 1
  mean arterial pressure above baseline, 24-hr mean: 13.5±1.8 mmHg
[1]; FTY720 10 mg/kg single oral dose, day 1
  mean arterial pressure above baseline, 24-hr mean: 19.9±2.8 mmHg
[1]; FTY720 10 mg/kg single oral dose, day 1, vehicle 15±3
  heart rate change from baseline, 24-hr mean: −13±6 beats/min
[1]; FTY720 single oral dose, after day 1 up to 72 hours
  changes in heart rate vs vehicle after day 1: not different from vehicle control rats
[3]
  concentration in the CSF: No compound was detectable
